Test results taken from PMC9732821, “Neurotrophic Activity and Its Modulation by Zinc Ion of a Dimeric Peptide Mimicking the Brain-Derived Neurotrophic Factor N-Terminal Region” (ACS Chemical Neuroscience, 2022).

How the values were obtained:
undifferentiated cells = conditions: cited from earlier work
Description: Previous functional studies agree in identifying the N-terminal region as a pivotal NT domain for the binding selectivity and activation of Trks.[25]−[27] However, most of these information were obtained from the NGF-TrkA system.[28],[29] On the other hand, the BDNF N-terminal region has been less investigated. […] Mo ...

[1] = far-UV CD spectra and Zn^2+ titration; type: physicochemical; conditions: water, 298 K, pH 7.4, wide minimum around 200 nm
Procedure: Figure 5 Evaluation of Zn^2+ ion binding on d-bdnf. (A,B) Deconvoluted ESI mass spectra of 10^–6 M d-bdnf solutions incubated in water 2 h, 37 °C in the presence of a 100-fold excess of Zn^2+. 0.1% of formic acid was added (A) or not (B) just before the infusion. (C) Far-UV CD spectra at pH 7.4 for titration with Zn^2+ of d-bdnf (the black curve is the spectrum of peptide; red, green, blue, cyano, and gray are spectra of peptide after the addition of increasing equivalents of metal ions. (D) Spectral changes as a function of zinc addition monitored at λ = 222 nm. [d-bdnf] = 1 × 10^–5 M. (E) Most representative conformation for the BDNF(1–12) dimer coordinating Zn(II) metal ion. Carbon atoms are shown in silver, nitrogen atoms are reported in blue, oxygen atoms in red, sulfur atoms are represented in yellow, and Zn atom is reported in orange. The secondary structure of the peptide is represented in green.
Far-UV CD spectra were obtained at 298 K under a constant flow of nitrogen by using a Jasco model 810 spectropolarimeter. […]
Potentiometric titrations were carried out on a Titrando 905 automatic, using a combined glass-Ag/AgCl electrode (Metrohm, Switzerland). […] To avoid systematic errors and verify reproducibility, the EMF values of each experiment were recorded at different time intervals. The data were analyzed by using HYPERQUAD 2003 program 17. […]

[2] = potentiometric titration, protonation constants; type: physicochemical; conditions: 298 K
Procedure: Potentiometric measurements were carried out to give insight into the coordination environment of Zn^2+ bound to the d-bdnf peptide (Figure S5). […] The four protonation equilibria of the aspartic and glutamic residues partly overlap but, in agreement with the literature data, the aspartic β-carboxylic group is more acidic than glutamic γ-carboxylic one.[48] The potentiometric titrations were carried out exploring 0.9:1 and 2.2:1 metal to ligand molar ratio. […] The peptide forms two complex species, [ZnLH] and [ZnL]. The first one is the predominant at pH = 6, and the calculated stability constant value [logK(111) = logβ(111) – logK(011) = 5.71] indicates the involvement of three nitrogen atoms in the metal coordination environment. The [ZnL] species display a stability constant value, logβ = 7.15, higher than that of protonated species indicative of the involvement of a further nitrogen atom in the metal binding mode. In this complex species, Zn^2+ is bound to four nitrogen atoms with the involvement of two amino and two imidazole (2NH2,2NIm coordination mode). […]
Potentiometric measurements
Potentiometric titrations were carried out on a Titrando 905 automatic, using a combined glass-Ag/AgCl electrode (Metrohm, Switzerland). Solutions (2.0 mL) were thermostated at 298 K and in argon atmosphere. The ionic strength was 0.1 M in KNO3. A 0.1 M solution of KOH was used to titrate solutions containing either the peptides only (protonation constants) or the peptides with Zn2+ (complexation constants). The peptide concentrations range used was 1-2 mM in both series of experiments. At least three independent titrations were performed. Starting pH value was adjusted to 2.4 by adding HNO3 0.2 M. The titrations were carried out up to pH 8.5. Metal ion/ligand ratios between 0.9:1 and 2.2:1 were employed. To avoid systematic errors and verify reproducibility, the EMF values of each experiment were recorded at different time intervals. The data were analyzed by […]
using HYPERQUAD 2003 program 17. […]

[3] = species LH 12 (NH2), 0.1 M KNO3
[4] = species LH 13 (His), 0.1 M KNO3
[5] = species LH 14 (His), 0.1 M KNO3
[6] = species LH 15 (COO), 0.1 M KNO3
[7] = species LH 16 (COO), 0.1 M KNO3
[8] = species LH 17 (COO), 0.1 M KNO3
[9] = species LH 18 (COO), 0.1 M KNO3

| conformation by far-UV CD [1] | logk (stepwise protonation, pK) ([2]; species LH 11 (NH2), 0.1 M KNO3) | log (protonation constant) ([2]; species LH 11 (NH2), 0.1 M KNO3, at least three titrations) | log (protonation constant) [2, 3] | logk (stepwise protonation, pK) [2, 3] | log (protonation constant) [2, 4] | logk (stepwise protonation, pK) [2, 4] | log (protonation constant) [2, 5] | logk (stepwise protonation, pK) [2, 5] | log (protonation constant) [2, 6] | logk (stepwise protonation, pK) [2, 6] | log (protonation constant) [2, 7] | logk (stepwise protonation, pK) [2, 7] | log (protonation constant) [2, 8] | logk (stepwise protonation, pK) [2, 8] | log (protonation constant) [2, 9] | logk (stepwise protonation, pK) [2, 9] | Substance | proliferative capacity (undifferentiated cells) |
| --- | --- | --- | --- | --- | --- | --- | --- | --- | --- | --- | --- | --- | --- | --- | --- | --- | --- | --- |
|  |  |  |  |  |  |  |  |  |  |  |  |  |  |  |  |  | HSDPARRGELSV-NH2 [m-bdnf, linear peptide fragment encompassing the first 12 amino acids of the mature NT N-terminal] | displays proliferative capacity in undifferentiated cells |
| predominantly a random coil conformation | 7.59 | 7.59 | 14.75 | 7.16 | 20.71 | 5.96 | 26.03 | 5.32 | 30.69 | 4.66 | 34.90 | 4.20 | 38.44 | 3.55 | 41.75 | 3.31 | HSDPARRGELSVC-C-VSLEGRRAPDSH (disulfide) [d-bdnf] |  |
